Experimental data as given in patent publication US20200030368A1, “A POLYMER NETWORK, METHOD FOR PRODUCTION, AND USES THEREOF” (priority 2016, published 2020).

Experiments:
S. aureus = assay: Resistance study by serial passaging at sub-MIC; assay type: cell-based; conditions: 14 passages at sub-MIC (MIC/2)
Experimental: (§1) Two control antibiotics norfloxacin and colistin were chosen for S. aureus and for A. baumannii, respectively. In case of norfloxacin and colistin also, the initial MIC values were determined against respective bacteria. After the initial MIC experiment, serial passaging was initiated by transferring bacterial suspension grown at the sub-MIC of the polymer/antibiotics and was subjected to another MIC assay. […] The process was repeated for 14 passages for both S. aureus and A. baumannii respectively. The fold increase in MIC for test polymer to the control antibiotics was plotted against the number of passages to determine the propensity of bacterial resistance development.

A. baumannii = assay: Resistance study by serial passaging at sub-MIC; assay type: cell-based; conditions: 14 passages at sub-MIC (MIC/2)
Experimental: as §1

| Compound | change in MIC on serial passaging (S. aureus) | change in MIC on serial passaging (A. baumannii) |
| --- | --- | --- |
| CCn1cc(C(=O)O)c(=O)c2cc(F)c(N3CCNCC3)cc21 [norfloxacin] | gradual increase in MIC | – |
| colistin | – | gradual increase in MIC |
